PMC5526615, “Phenotypic, chemical and functional characterization of cyclic nucleotide phosphodiesterase 4 (PDE4) as a potential anthelmintic drug target” (PLoS Neglected Tropical Diseases, 2017)
Where “and” joins values, the source holds several entries; their conditions need not be identical. Equal values may be shown once. Read-outs that look alike come from different tables or passages of the source.

What was measured:
adult S. mansoni = assay: Wormassay adult worm motility; assay type: cell-based; settings: Schistosoma mansoni, 1 h, read-out: Adult motility (-fold increase vs. DMSO controls)
Experimental: Adult schistosome screens were performed in 24-well plates (Corning Inc., cat. # 3544) using five worm pairs per well in a final volume of 2 ml of the above Basch medium. Compound was added in a volume of 1 μl DMSO such that the final concentration was 10 μM. Incubations were maintained for 3 days at 37°C under 5% CO2.
Parasite responses to chemical insult were adjudicated visually every 24 h (also at the 1 h time point for adults) using an inverted microscope and employed a constrained nomenclature of phenotype descriptors (e.g., rounding, degeneration, overactivity and slowed motility) as described. For adult parasites, in addition to observation-based annotations, we employed Wormassay to measure worm motility. Briefly, Wormassay comprises a commodity digital movie camera connected to an Apple personal computer that operates an open source software application to automatically process multiple wells (in 6-, 12- or 24-well plate formats). The application detects worm-induced changes in the occupation and vacancy of pixels between frames (outputted as an average ± S.D.). Worm motion was quantified using the “Consensus Voting Luminance Difference” option.

huPDE4B2 = target: T1, huPDE4B2 (Homo sapiens, UniProt Q07343); assay: PDE4 inhibition assay, huPDE4B2 catalytic domain ([3H]-cAMP hydrolysis); assay type: biochemical; settings: Anacor's in-house data, mean ± SD (number of assays) or two single assay values, read-out: Human PDE4B2 IC50
T1 construct: performed using the catalytic domains of (A) huPDE4B2 (NP_001032416.1); purchased Proteros Biostructures, GmbH, Martinsried, Germany
T1 sequence (Q07343 324-659): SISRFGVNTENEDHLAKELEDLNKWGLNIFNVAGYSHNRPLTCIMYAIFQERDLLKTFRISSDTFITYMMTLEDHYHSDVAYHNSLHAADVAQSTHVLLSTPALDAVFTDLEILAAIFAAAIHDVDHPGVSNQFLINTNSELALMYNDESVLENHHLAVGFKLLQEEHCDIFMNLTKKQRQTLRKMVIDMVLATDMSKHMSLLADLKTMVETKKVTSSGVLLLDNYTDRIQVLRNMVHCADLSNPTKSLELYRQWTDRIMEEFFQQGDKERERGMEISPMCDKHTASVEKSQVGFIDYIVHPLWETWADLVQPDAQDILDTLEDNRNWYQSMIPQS
Experimental: Assays with each inhibitor were performed using the catalytic domains of (A) huPDE4B2 (NP_001032416.1) and (B) SmPDE4A (Smp_134140).
Assay of PDE4 enzymatic activity was as described [96]: huPDE4B2 was purchased from Proteros Biostructures, GmbH, Martinsried, Germany. […] The precipitate was collected by filtration onto Multi-Screen HTS FB plates (Millipore, Billerica, MA), washed and then dried for quantitation of radioactivity.

SmPDE4A = SmPDE4A (Schistosoma mansoni, UniProt A0A5K4ENE3); assay: biochemical
Chain of SmPDE4A (A0A5K4ENE3 entry or part of it): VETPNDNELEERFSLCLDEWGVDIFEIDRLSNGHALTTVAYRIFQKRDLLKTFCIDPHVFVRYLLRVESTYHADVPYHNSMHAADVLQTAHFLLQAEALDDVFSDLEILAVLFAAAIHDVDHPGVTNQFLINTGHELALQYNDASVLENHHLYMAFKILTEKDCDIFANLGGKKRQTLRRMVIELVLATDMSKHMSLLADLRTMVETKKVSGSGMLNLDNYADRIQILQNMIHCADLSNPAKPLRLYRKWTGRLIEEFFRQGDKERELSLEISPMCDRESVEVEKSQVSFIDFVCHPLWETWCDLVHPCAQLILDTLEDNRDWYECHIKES
Experimental: Assays were performed in triplicate, and IC50 values were determined by non-linear regression analysis using the four-parameter logistic equation (Prism GraphPad version. 6.03).
Assay of PDE4 enzymatic activity was as described: huPDE4B2 was purchased from Proteros Biostructures, GmbH, Martinsried, Germany. […] The precipitate was collected by filtration onto Multi-Screen HTS FB plates (Millipore, Billerica, MA), washed and then dried for quantitation of radioactivity. For tests with PDE4 inhibitors, fifty percent inhibitory concentration (IC50) values were calculated based on a four-parameter logistic equation: the means and number of replicates are reported in Fig 4.

[1] = system: pde4(ce268);smpde4a(a) and pde4(ce268);smpde4a(b) transgenic C. elegans; assay: C. elegans motility assay (body bends), transgenic lines expressing smpde4a; assay type: cell-based, Caenorhabditis elegans; settings: 100 μM, 16 h
Experimental: To generate C. elegans that carry the SmPDE4A transgene, the plasmids described above were purified and microinjected into the gonads of both WT (N2) and pde4(ce268) mutant strains at a concentration of 50 ng/μl. The injected worms (P0) were transferred to individual freshly seeded bacteria plates and allowed to reproduce. F1 progeny were screened for evidence of transgene expression based on the GFP marker. Each transgenic F1 was then singled onto a new plate. This process was repeated until lines that stably transmit the transgene were established in WT or pde(ce268) animal backgrounds. To verify the consistency of GFP expression in the transgenic lines, 10–20 transgenic animals from each line were examined using a Zeiss Axioplan II stereoscope equipped with a FITC/GFP filter (emission 500–515 nm).
Compounds were directly added onto the OP50 food source at a 100 μM final concentration or the equivalent 0.2% DMSO as control. Previously synchronized early L4 stage larvae were cultivated on NGM plates with OP50 and compounds at 20°C for 16 h. For each experimental condition and transgenic line, motility was measured for 10–20 animals. […] After a brief period of recovery from this manipulation, locomotion was measured by counting the number of body bends in 30 s intervals under a stereoscope.

huPDE4D = huPDE4D ref 96; cited from earlier work
huPDE4A = huPDE4A ref 96; cited from earlier work
huPDE4B = huPDE4B ref 96; cited from earlier work
[2] = system: WT C. elegans (N2 Bristol); assay: C. elegans motility assay (body bends), wild type; assay type: cell-based, Caenorhabditis elegans; settings: 100 μM, 16 h
Experimental: Compounds were directly added onto the OP50 food source at a 100 μM final concentration or the equivalent 0.2% DMSO as control. Previously synchronized early L4 stage larvae were cultivated on NGM plates with OP50 and compounds at 20°C for 16 h. For each experimental condition and transgenic line, motility was measured for 10–20 animals. The animals were washed twice in S basal buffer, transferred onto a new NGM plate in the absence of bacteria. After a brief period of recovery from this manipulation, locomotion was measured by counting the number of body bends in 30 s intervals under a stereoscope.

[3] = recombinant catalytic domain, mean ± SD (number of assays) or two single assay values, read-out: SmPDE4A IC50
[4] = SmPDE4A IC50, recombinant catalytic domain, mean ± SD (number of assays) or two single assay values

| IC50 (huPDE4B2) | IC50 (SmPDE4A; [3]) | Structure (SMILES) | fold induction at 10 µM (adult S. mansoni; Wormassay, 10 μM after 1 h) | other results |
| --- | --- | --- | --- | --- |
| 43.6 nM and 65 nM | 415 nM | CC(C)S(=O)(=O)c1ccc(Oc2ccc3c(c2)COB3O)cc1 [Compound 6] | 1.5 |  |
|  |  | COc1ccc(C2CNC(=O)C2)cc1OC1CCCC1 (stereo not shown) [Rolipram, rolipram, reference compound] |  | motility of mutant lines carrying the smpde4a transgene [1]: increased motility significantly; IC50 (SmPDE4A; recombinant catalytic domain, read-out: SmPDE4A IC50): > 10000 nM |
|  |  | Nc1ncnc2c1ncn2[C@@H]1O[C@@H]2COP(=O)(O)O[C@H]2[C@H]1O [cAMP, cyclic adenosine monophosphate] |  | Km (huPDE4D): 7.81 µM; Km (huPDE4A): 0.98 µM; Km (huPDE4B): 2.25 µM |
| 19.3 nM and 32.4 nM | 123 nM | N#Cc1ccc(Oc2ccc3c(c2)COB3O)cc1O [Compound 7] | 1.1 |  |
|  |  | O=C(Nc1c(Cl)cncc1Cl)c1ccc(OC(F)F)c(OCC2CC2)c1 [Roflumilast, roflumilast, reference compound] |  | IC50 (SmPDE4A; [4]): 11.3 nM and 18 nM and 11 nM |
|  |  | CC(=O)CCCOc1nc(Oc2ccc3c(c2)COB3O)c(Cl)cc1C#N [Compound 2] | 7.9 | motility relative to the DMSO control [2]: increased motility |
| 3.8 ± 2.7 nM | 12 ± 6.2 nM | CC(C)OCCOc1nc(Oc2ccc3c(c2)COB3O)ccc1C#N [Compound 4] | 5.7 | motility relative to the DMSO control [2]: did not |
|  |  | CC(=O)CCCOc1nc(Oc2cc(F)c3c(c2)COB3O)c(Cl)cc1C#N [Compound 1] | 9.9 |  |
| 30 ± 26.7 nM | 14.7 ± 6.4 nM | CN(C)C(=O)CCCOc1nc(Oc2ccc3c(c2)COB3O)ccc1C#N [Compound 3] | 7.1 |  |

| Structure (SMILES) | IC50 (huPDE4B2) | IC50 (SmPDE4A; [3]) | fold induction at 10 µM (adult S. mansoni; Wormassay, 10 μM after 1 h) | other results |
| --- | --- | --- | --- | --- |
| N#Cc1ccc(Oc2ccc3c(c2)COB3O)cc1C(F)(F)F [Compound 5] | 68.9 nM and 22.1 nM |  |  | fold induction at 10 µM (adult S. mansoni): 3.9; IC50 (SmPDE4A; [4]): 47 ± 27.4 nM |
